Source: patent US6696488B2, “(Hydroxyethyl)ureas as inhibitors of alzheimer's β-amyloid production” (The Brigham and Women's Hospital, Inc., priority 2000, dated 2004)

Columns and labels:
[1] = tested on: total Aβ peptide production; experiment: Inhibition of total Aβ peptide production in APP-transfected cells, ELISA (Example 2); format: cell-based; details: 4 hours in culture, FIG. 1, read-out: concentration for 50 percent inhibition of total Aβ peptide production
From the text: (§1) Cell Lines, Compound Treatments, and ELISAs. Cell lines were Chinese hamster ovary (CHO) and SK-N-SH human neuroblastoma cells stably transfected with the 751- or 695-amino acid splicing variants of APP, respectively, and the neo gene, and human embryonic kidney (HEK) 293 cells carrying the same genes (APP695 plus neo) but with the K595N/M596L (“Swedish”) double mutation of APP. Xia W et al., J Biol Chem 272:7977-7982 (1997); Citron M et al., Proc Natl Acad Sci USA 93:13170-13175 (1996). Cells were grown to confluence in Dulbecco's modified Eagle's medium containing 200 μg/ml G418 (Gibco BRL). Stock concentrations of the (hydroxyethyl)urea compounds of the invention in DMSO were added to media to reach the final concentrations with 1% DMSO. Positive controls contained 1% DMSO alone. […] The reporter antibody was detected using 3,3′,5,5′-tetramethylbenzidine (Pierce), measuring at 455 nm for calculating Aβ levels and at 595 nm for normalization.
(§2) Compound III-20 (shown above) or compound III-24 (identical to III-20 except R4 is L-phenylalanine O-methyl ester) was added over a range of concentrations (0.1-100 μM) to APP-transfected cells in culture as described. […] After 4 hours in culture, supernatants from test and control cultures were assayed by ELISA specific for Aβ peptides, and results were analyzed as percent total or specific Aβ produced compared to control.

Aβ42 production = experiment: Inhibition of Aβ42 production in APP-transfected cells, ELISA (Example 2); format: cell-based; details: 4 hours, compared with total Aβ, FIG. 2
From the text: as §1, §2

[2] = tested on: Aβ production in APP751-plus neo-transfected CHO cells; experiment: Inhibition of Aβ production in APP751-plus neo-transfected CHO cells, ELISA (Example 3); format: cell-based, Chinese hamster; details: Cricetulus griseus, 4 hours, 0.005 to 100 μM, 1% DMSO
From the text: Cell Lines, Compound Treatments, and ELISAs. Cell lines were Chinese hamster ovary (CHO) and SK-N-SH human neuroblastoma cells stably transfected with the 751- or 695-amino acid splicing variants of APP, respectively, and the neo gene, and human embryonic kidney (HEK) 293 cells carrying the same genes (APP695 plus neo) but with the K595N/M596L (“Swedish”) double mutation of APP. Xia W et al., J Biol Chem 272:7977-7982 (1997); Citron M et al., Proc Natl Acad Sci USA 93:13170-13175 (1996). Cells were grown to confluence in Dulbecco's modified Eagle's medium containing 200 μg/ml G418 (Gibco BRL). Stock concentrations of the (hydroxyethyl)urea compounds of the invention in DMSO were added to media to reach the final concentrations with 1% DMSO. Positive controls contained 1% DMSO alone. […] The reporter antibody was detected using 3,3′,5,5′-tetramethylbenzidine (Pierce), measuring at 455 nm for calculating Aβ levels and at 595 nm for normalization. […]
Transfected CHO cells were prepared and maintained as described in Example 2. […] Results were plotted as percent control Aβ produced versus (hydroxyethyl)urea compound concentration (μM), and (hydroxyethyl)urea compound concentrations at which production was inhibited by 50 percent (IC50) were determined.

In the case of COC(=O)[C@H](CC(C)C)NC(=O)[C@H](CC(C)C)NC(=O)N(Cc1ccccc1)C[C@@H](O)[C@H](Cc1ccccc1)NC(=O)OC(C)(C)C [FΨFLL], the IC50 [1] is reported as ~1000 nM, the “inhibitory effect on the production of Aβ42” value (Aβ42 production) is reported as “closely followed the inhibition by compound III-20 of total Aβ production” and the IC50 [2] is reported as 500 nM.
